Experimental data: ChEMBL document CHEMBL3865781, “Recent advances in the discovery and development of antibacterial agents targeting the cell-division protein FtsZ” (Bioorg Med Chem, 2016)
In brackets after ≈: the same amount, converted by molar mass.

Key:
Bacillus subtilis [1] = experiment: Antibacterial activity against Bacillus subtilis; format: functional
Staphylococcus aureus [2] = experiment: Antibacterial activity against multi-drug resistant Staphylococcus aureus; format: functional
[3] = Toxicity in mouse infected with Staphylococcus aureus assessed as survival at 30 mg/kg, iv or po; format: organism-based; details: in vivo
Staphylococcus aureus [4] = experiment: Antibacterial activity against methicillin-resistant Staphylococcus aureus; format: functional
[5] = Half life in iv dosed BALB/c mouse administered 1 hr after ABT addition by LC-MS/MS analysis; format: ADME, organism-based; details: in vivo
[6] = test system: Mycobacterium tuberculosis; experiment: Antibacterial activity against Mycobacterium tuberculosis W210 clinical isolates measured every 24 hrs for 7 days by MABA assay; format: functional
[7] = test system: Mycobacterium tuberculosis; experiment: Antibacterial activity against Mycobacterium tuberculosis H37Rv measured every 24 hrs for 7 days by MABA assay; format: functional
[8] = test system: Mycobacterium tuberculosis; experiment: In vivo antibacterial activity against Mycobacterium tuberculosis str. Erdman infected in C57BL/6 mouse assessed as reduction in bacterial load in spleens at 50 mg/kg, ip bid on day 5 to 14 post infection measured on day 15 post infection; format: functional, Erdman = ATCC 35801
[9] = test system: Mycobacterium tuberculosis; experiment: Antibacterial activity against Mycobacterium tuberculosis NHN382 clinical isolates measured every 24 hrs for 7 days by MABA assay; format: functional
[10] = test system: Mycobacterium tuberculosis; experiment: Antibacterial activity against Mycobacterium tuberculosis TN587 clinical isolates measured every 24 hrs for 7 days by MABA assay; format: functional
[11] = test system: Mycobacterium tuberculosis; experiment: In vivo antibacterial activity against Mycobacterium tuberculosis H37Rv infected in GKO-TB mouse assessed as reduction in bacterial load in lungs at 50 mg/kg, ip or po bid for 10 consecutive days; format: functional
[12] = test system: Mycobacterium tuberculosis; experiment: Antibacterial activity against Mycobacterium tuberculosis NHN20 clinical isolates measured every 24 hrs for 7 days by MABA assay; format: functional
[13] = test system: Mycobacterium tuberculosis; experiment: In vivo antibacterial activity against Mycobacterium tuberculosis H37Rv infected in C57BL/6 GKO-mouse assessed as reduction in bacterial load in lungs at 150 mg/kg, ip qd on day 12 post infection for 9 consecutive days; format: functional
[14] = test system: Mycobacterium tuberculosis; experiment: In vivo antibacterial activity against Mycobacterium tuberculosis H37Rv infected in C57BL/6 GKO-mouse assessed as reduction in bacterial load in spleens at 150 mg/kg, ip qd on day 12 post infection for 9 consecutive days; format: functional
Bacillus subtilis [15] = experiment: Antibacterial activity against Bacillus subtilis after 4 hrs; format: functional
[16] = test system: Mycolicibacterium smegmatis; experiment: Antibacterial activity against Mycobacterium smegmatis after 4 hrs; format: functional
Staphylococcus aureus [17] = experiment: Antibacterial activity against methicillin-sensitive Staphylococcus aureus after 18 hrs by broth microdilution method; format: functional
Escherichia coli [18] = experiment: Antibacterial activity against Escherichia coli by broth dilution method; format: functional
Escherichia coli [19] = experiment: Antibacterial activity against Escherichia coli ATCC 25922 after 18 hrs by broth microdilution method; format: functional; details: ATCC 25922, 18 h
Klebsiella pneumoniae = experiment: Antibacterial activity against Klebsiella pneumoniae ATCC BAA-1144 after 18 hrs by broth microdilution method; format: functional; details: ATCC BAA-1144, 18 h
Enterococcus faecalis [20] = experiment: Antimicrobial activity against vancomycin-sensitive Enterococcus faecalis after 18 hrs by broth microdilution method; format: functional
Enterococcus faecalis [21] = experiment: Antimicrobial activity against vancomycin-resistant Enterococcus faecalis after 18 hrs by broth microdilution method; format: functional
Staphylococcus aureus [22] = experiment: Antibacterial activity against methicillin-resistant Staphylococcus aureus by broth dilution method; format: functional
Bacillus subtilis [23] = experiment: Antibacterial activity against Bacillus subtilis by broth dilution method; format: functional
Staphylococcus aureus [24] = experiment: Antibacterial activity against methicillin-resistant Staphylococcus aureus ATCC BAA-41 after 18 hrs by broth microdilution method; format: functional; details: ATCC BAA-41, 18 h
Salmonella typhimurium = experiment: Antibacterial activity against Salmonella typhimurium; format: functional, Salmonella enterica subsp. enterica serovar Typhimurium; details: Salmonella enterica
Priestia megaterium = experiment: Antibacterial against Bacillus megaterium; format: functional
Escherichia coli [25] = experiment: Antibacterial activity against Escherichia coli; format: functional
Staphylococcus aureus [26] = experiment: Antibacterial against methicillin-resistant Staphylococcus aureus; format: functional
Staphylococcus aureus [27] = experiment: In vivo antibacterial activity against methicillin-resistant Staphylococcus aureus ATCC 33591 infected in ICR(CD-1) mouse thigh infection model assessed as reduction in colony forming units in thigh muscle at 120 to 160 mg/kg, po measured 24 hrs post infection; format: functional
[28] = test system: Mycolicibacterium smegmatis; experiment: Antibacterial activity against Mycobacterium smegmatis after 12 hrs by agar dilution assay; format: functional
Bacillus subtilis [29] = experiment: Antibacterial activity against Bacillus subtilis 168 after 12 hrs by agar dilution assay; format: functional; details: subsp. subtilis str. 168, 12 h
[30] = target: T1, Cell division protein FtsZ (Escherichia coli K-12, UniProt P0A9A6); experiment: Inhibition of recombinant Escherichia coli K12 FtsZ assembly by light-scattering assay
T1 sequence (P0A9A6 whole entry): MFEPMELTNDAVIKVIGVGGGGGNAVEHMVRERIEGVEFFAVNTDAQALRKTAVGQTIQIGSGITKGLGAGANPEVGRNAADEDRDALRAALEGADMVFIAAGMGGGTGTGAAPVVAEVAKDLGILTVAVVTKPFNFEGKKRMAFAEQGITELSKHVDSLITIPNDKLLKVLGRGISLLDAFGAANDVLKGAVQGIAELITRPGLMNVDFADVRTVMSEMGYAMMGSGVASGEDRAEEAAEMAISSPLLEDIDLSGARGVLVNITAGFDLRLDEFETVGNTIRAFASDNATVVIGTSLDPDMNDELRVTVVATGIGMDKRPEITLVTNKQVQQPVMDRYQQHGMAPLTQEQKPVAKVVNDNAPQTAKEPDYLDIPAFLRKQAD

[31] = target: T1, Cell division protein FtsZ; experiment: Inhibition of recombinant Escherichia coli K12 FtsZ GTPase activity by malachite green sodium molybdate assay
Staphylococcus aureus [32] = experiment: Antibacterial activity against vancomycin-intermediate Staphylococcus aureus isolates after 16 to 24 hrs by microdilution method; format: functional
Staphylococcus aureus [33] = experiment: Antibacterial activity against vancomycin-resistant Staphylococcus aureus isolates after 16 to 24 hrs by microdilution method; format: functional
Staphylococcus aureus [34] = experiment: Antibacterial activity against methicillin-sensitive Staphylococcus aureus after 16 to 24 hrs by microdilution method; format: functional
Staphylococcus aureus [35] = experiment: Antibacterial activity against linezolid-nonsusceptible Staphylococcus aureus isolates after 16 to 24 hrs by microdilution method; format: functional
Staphylococcus aureus [36] = experiment: Antibacterial activity against methicillin-resistant Staphylococcus aureus after 16 to 24 hrs by microdilution method; format: functional
Staphylococcus aureus [37] = experiment: Antibacterial activity against Daptomycin-nonsusceptible Staphylococcus aureus isolates after 16 to 24 hrs by microdilution method; format: functional

Compound: NC(=O)c1c(F)ccc(OCc2nc3cc(Cl)cnc3s2)c1F
- MIC (Bacillus subtilis [1]): 0.5 to 1 µg/mL (≈ 1.41 to 2.81 µM)
- MIC (Staphylococcus aureus [2]): 0.5 to 1 µg/mL (≈ 1.41 to 2.81 µM)
- survival [3]: 100%
- MIC (Staphylococcus aureus [4]): 0.5 to 1 µg/mL (≈ 1.41 to 2.81 µM)
- half-life [5]: 0.56 h

Compound: CN(C)c1cc2[nH]c(C3CCCCC3)nc2cc1NC(=O)c1ccc(OC(F)(F)F)cc1
- MIC99 [6]: 0.16 µg/mL (≈ 0.358 µM)
- MIC99 [7]: 0.16 µg/mL (≈ 0.358 µM)
- Activity [8]: 2.68 log10CFU
- MIC99 [9]: 0.16 µg/mL (≈ 0.358 µM)
- MIC99 [10]: 0.16 µg/mL (≈ 0.358 µM)

Compound: CN(C)c1cc2[nH]c(C3CCCCC3)nc2cc1NC(=O)c1ccc(OC(F)(F)F)c(F)c1F
- Activity [11]: 2.5 - 3.4 log10CFU
- MIC99 [6]: 0.47 µg/mL (≈ 0.974 µM)
- MIC99 [7]: 0.39 µg/mL (≈ 0.808 µM)
- MIC99 [12]: 0.39 µg/mL (≈ 0.808 µM)
- MIC99 [9]: 0.37 µg/mL (≈ 0.767 µM)
- MIC99 [10]: 0.31 µg/mL (≈ 0.643 µM)

Compound: CCCCOC(=O)Nc1cc2nc(C3CCCCC3)[nH]c2cc1N(CC)CC
- MIC99 [6]: 1.25 µg/mL (≈ 3.23 µM)
- MIC99 [7]: 0.63 µg/mL (≈ 1.63 µM)
- MIC99 [9]: 1.25 µg/mL (≈ 3.23 µM)
- MIC99 [10]: 1.25 µg/mL (≈ 3.23 µM)
- Activity [13]: 0.41 log10CFU
- Activity [14]: 0.7 log10CFU

Compound: CCC(C)c1ccc(NC(=O)c2cccc3[nH]c(-c4cccs4)nc23)cc1 (centres undefined)
- IC50 (Bacillus subtilis [15]): 1 µM
- IC50 [16]: 1.6 µM

Compound: O=C/C=C/c1ccccc1 [CINNAMALDEHYDE]
- MIC (Staphylococcus aureus [17]): 2 to 8 µg/mL (≈ 15.1 to 60.5 µM)
- MIC (Escherichia coli [18]): 0.1 µg/mL (≈ 0.757 µM)
- MIC (Escherichia coli [19]): 32 to 128 µg/mL (≈ 242 to 969 µM)
- MIC (Klebsiella pneumoniae): 32 to 128 µg/mL (≈ 242 to 969 µM)
- MIC (Enterococcus faecalis [20]): 4 to 16 µg/mL (≈ 30.3 to 121 µM)
- MIC (Enterococcus faecalis [21]): 4 to 16 µg/mL (≈ 30.3 to 121 µM)
- MIC (Staphylococcus aureus [22]): 0.25 µg/mL (≈ 1.89 µM)
- MIC (Bacillus subtilis [23]): 0.5 µg/mL (≈ 3.78 µM)
- MIC (Staphylococcus aureus [24]): 2 to 8 µg/mL (≈ 15.1 to 60.5 µM)

Compound: H-GLLRKGGEKIGEKLKKIGQKIKNFFQKLVPQPEQ-OH
- MIC (Salmonella typhimurium): 0.5 to 64 µM
- MIC (Priestia megaterium): 0.5 to 64 µM
- MIC (Escherichia coli [25]): 0.5 to 64 µM
- MIC (Staphylococcus aureus [26]): 0.5 to 64 µM

Compound: CN1CCC(C(=O)NC(=O)c2c(F)ccc(OCc3nc4cc(C(F)(F)F)cnc4s3)c2F)CC1
- Activity (Staphylococcus aureus [27]): 2 log10CFU

Compound: CC(=O)O[C@@]12CO[C@@H]1C[C@H](O)[C@@]1(C)C(=O)C(=O)C3=C(C)[C@@H](OC(=O)/C=C/c4ccc5ccccc5c4)C[C@@](O)([C@@H](OC(=O)c4ccccc4)[C@H]21)C3(C)C
- MIC [28]: 60 µM (≈ 43.4 µg/mL)
- MIC (Bacillus subtilis [29]): 30 µM (≈ 21.7 µg/mL)

Compound: COc1ccc2cc3[n+](cc2c1OC)CCc1cc2c(cc1-3)OCO2.[Cl-] [BERBERINE CHLORIDE]
- IC50 [30]: 10 µM
- IC50 [31]: 16 µM
- MIC (Staphylococcus aureus [17]): 2 to 8 µg/mL
- MIC (Escherichia coli [19]): 32 to 128 µg/mL
- MIC (Klebsiella pneumoniae): 32 to 128 µg/mL
- MIC (Enterococcus faecalis [20]): 4 to 16 µg/mL
- MIC (Staphylococcus aureus [24]): 2 to 8 µg/mL

Compound: NC(=O)c1c(F)ccc(OCc2nc3cc(C(F)(F)F)cnc3s2)c1F
- MIC (Staphylococcus aureus [32]): 1 µg/mL (≈ 2.57 µM)
- MIC (Staphylococcus aureus [33]): 1 µg/mL (≈ 2.57 µM)
- MIC (Staphylococcus aureus [34]): 1 µg/mL (≈ 2.57 µM)
- MIC (Staphylococcus aureus [35]): 1 µg/mL (≈ 2.57 µM)
- half-life [5]: 3.65 h
- MIC (Staphylococcus aureus [36]): 1 µg/mL (≈ 2.57 µM)
- MIC (Staphylococcus aureus [37]): 1 µg/mL (≈ 2.57 µM)
